Laboratory results as given in US20220033405A1, “PHARMACEUTICAL COMPOSITION FOR PREVENTING OR TREATING CANCER CONTAINING PLK1 INHIBITOR AS ACTIVE INGREDIENT” (NATIONAL CANCER CENTER, priority 2018, published 2022).

Test: Toxicity test, histopathological analysis of organs
Format: in vivo, mouse
Details: 1, 5 and 10 mg/kg intraperitoneally 3 times weekly, 2 weeks
Description: Compound 4 (M21) was diluted in 300 μl of PBS and intraperitoneally injected 3 times weekly at 1 mg/kg, 5 mg/kg and 10 mg/kg per body weight of a mouse, respectively, and DMSO diluted in 300 μl of PBS was intraperitoneally injected at 3% in the control. After 2 weeks, the lungs, heart, liver, kidneys, spleen and skin were removed by sacrificing mice, and fixed in a formalin solution.

Cn1c2nc(=O)[nH]c(=O)c-2nc2cc(C(F)(F)F)ccc21 [Compound 4, 10-methyl-7-(trifluoromethyl)-2H,3H,4H,10H-benzo[g]pteridine-2,4-dione]
histopathological analysis of lungs, heart, liver, kidneys, spleen and skin: No change by separate acute toxicity was observed
